Results: US7482307B2, “Herbicide composition” (Sumitomo Chemical Company, Limited, priority 2001, dated 2009)

Columns and labels:
[1] = system: yellow nutsedge (Cyperus esculentus); experiment: Test Example 1: foliar spray herbicide effect on yellow nutsedge in greenhouse pots; format: in vivo; conditions: evaluated 25 days after treatment, level 0-10
Experimental: (§1) Evaluation of phytotoxicity against a crop was shown by “no” when almost no phytotoxicity was observed, “low” when a low level phytotoxicity was observed, “medium” when a medium level phytotoxicity was observed and “high” when a high level phytotoxicity was observed.
(§2) A plastic pot of 11 cm in diameter and 8 cm in depth was filled with field soil. A tuber of yellow nutsedge (Cyperus esculentus) was planted and grown in a greenhouse for 21 days.
(§3) An emulsion of Compound A-1 was prepared by sufficiently mixing 5 parts of Compound A-1, 6 parts of Sorpol 3005× (surfactant, produced by Toho Chemical) and 89 parts of xylene.
(§4) Each of • single use of an emulsion of Compound A-1, • single use of an formulation of Imazethapyr (commercial name: Pursuit, produced by American Cyanamid, containing 24% of imazethapyr), • single use of an formulation of Imazamox (commercial name: Raptur, produced by American Cyanamid, containing 12.1% of imazamox), • a mixed composition of an emulsion of Compound A-1 and an formulation of Imazethapyr, and • a mixed composition of an emulsion of Compound A-1 and an formulation of Imazamox, were diluted with water containing 1% Agri-dex (produced by Helena). Respective dilutions were uniformly sprayed from upper side onto foliages of yellow nutsedge grown as described above with a small sprayer such that the amounts of the active ingredients were the amounts shown in Table 4. Immediately after the treatment with the test compounds, seeds of soybean were sown.
(§5) After the treatment, they were raised in a greenhouse for 25 days and the effect against weeds was evaluated. In addition, after 14 days of the treatment, the phytotoxicity to soybean was evaluated.

soybean = experiment: Test Example 1: phytotoxicity to soybean sown immediately after treatment; format: in vivo; conditions: evaluated after 14 days
Experimental: as §1, §2, §3
as §4, with “Respective dilutions were uniformly sprayed from upper side onto foliages of yellow nutsedge grown as described above with a small sprayer such that the amounts of the active ingredients were the amounts shown in Table 4. Immediately after the treatment with the test compounds, seeds of soybean were sown.” left out
as §5

Row | Compound | Herbicide Effect yellow nutsedge ([1]; 10 g/ha active ingredient) | Herbicide Effect yellow nutsedge ([1]; 40 g/ha active ingredient) | Phytotoxicity soybean (soybean; 10 g/ha active ingredient) | Phytotoxicity soybean (soybean; 40 g/ha active ingredient) | Herbicide Effect yellow nutsedge ([1]; 20 g/ha active ingredient) | Herbicide Effect yellow nutsedge ([1]; 80 g/ha active ingredient)
1 | COCc1cnc(C2=NC(C)(C(C)C)C(=O)N2)c(C(=O)O)c1 (stereo not drawn) [Imazamox, 2-(4-isopropyl-4-methyl-5-oxo-2-imidazolin-2-yl)-5-(methoxymethyl)nicotinic acid] | 1 | 2 | no | no | – | –
2 | CCc1cnc(C2=NC(C)(C(C)C)C(=O)N2)c(C(=O)O)c1 (stereo not drawn) [Imazethapyr, 5-ethyl-2-(4-isopropyl-4-methyl-5-oxo-2-imidazolin-2-yl)nicotinic acid] | – | – | – | – | 1 | 2
